This is an account of results in ChEMBL document CHEMBL1132789, “Synthesis and estrogen receptor binding affinities of novel pyrrolo[2,1,5-cd]indolizine derivatives” (Bioorg Med Chem Lett, 2000).

The target of the assay is Estrogen receptor (Homo sapiens, UniProt Q92731+P03372).

Description: Inhibitory activity against Estrogen receptor by displacement of [3H]17-beta-estradiol in ER-rich cytosol from rabbit uterine tissue

In general, IC50 refers to the concentration at which inhibition is half-maximal. With `CCc1c(-c2ccccc2)c2ccc3c(O)ccc1n32`, the IC50 turned out to be 180 nM.
In turn, `Cc1c(-c2ccc(O)cc2)c2ccc3cccc1n32` returned an IC50 of 28 nM.
Turning to `Oc1ccc(C2=c3ccc4n3C(C=CC=4)C2CCc2ccccc2)cc1` (stereo unspecified), the IC50 was 180 nM.
Turning to `CCc1c(-c2ccccc2)c2ccc3cc(O)cc1n32`, the IC50 is 1300 nM.
Molecule `CCCc1c(-c2ccc(O)cc2)c2ccc3cccc1n32` registered an IC50 of 5 nM.
Take `CC(C)c1c(-c2ccc(O)cc2)c2ccc3cccc1n32`: the IC50 is reported as 8 nM.
To `CCc1c(-c2ccc(O)cc2)c2ccc3ccc(CO)c1n32` belongs 12 nM.
To `CCc1c(-c2ccc(O)cc2)c2ccc3cccc1n32` belongs 9.5 nM; to `CCc1c(-c2ccc(O)cc2)c2ccc3cc(O)cc1n32`, 0.9 nM.
For the molecule `CCCC(C)C1C(c2ccc(O)cc2)=c2ccc3n2C1C=CC=3` (stereo unspecified), the IC50 turned out to be 950 nM.
To `CCCCC1C(c2ccc(O)cc2)=c2ccc3n2C1C=CC=3` (stereo unspecified) belongs 200 nM; to `CCc1c(-c2ccc(O)cc2)c2ccc3c(O)ccc1n32`, 0.9 nM; to `CCc1c(-c2cccc(O)c2)c2ccc3cccc1n32`, 370 nM.
The value for `Oc1ccc(C2=c3ccc4n3C3C(=CC=4)CCCC23)cc1` (stereo unspecified) was 30 nM; that for `Oc1ccc(C2=c3ccc4n3C3C(=CC=4)CCCCC23)cc1` (stereo unspecified) was 25 nM; that for `Oc1ccc(-c2cc3cccc4ccc2n43)cc1` was 700 nM.
